Assay results taken from patent US20070249562A1, “TREATMENT OF ATRIAL FIBRILLATION” (priority 2006, published 2007).

Columns and labels:
Atrial Fibrillation = test: Randomized, double-blind placebo-controlled study in high-risk CABG patients; atrial fibrillation by 12-lead ECG; format: in vivo, human; details: for Reduction of AF compared to placebo: from POD 4 to POD 90
Description: A randomized, double-blind placebo-controlled, dose-ranging, parallel-arm multi-center study was undertaken, on high-risk patients undergoing CABG surgery with cardiopulmonary bypass. Patients were identified as “high risk” if they had two or more of the following risk factors: • Age greater than 65 years • Current smoker • History of diabetes mellitus requiring treatment other than diet • Evidence of left ventricular dysfunction or congestive heart failure • History of a previous non-disabling stroke, transient ischemic attack, or carotid endarterectomy • Urgent CABG intervention defined as the need to stay in the hospital (although the patient may be operated on within a normal scheduling routine). • History of myocardial infarction that occurred more than 48 hours but less than 6 weeks prior to CABG surgery • Prior peripheral artery surgery or angioplasty • Moderate renal dysfunction defined as […] >133 μmol/L (1.5 mg/dl), but <250 μmol/L (2.8 mg/dl) • Presence of at least one asymptomatic carotid artery stenosis (>50% ) either in one or two carotid arteries. Approximately 900 high risk pre-CABG patients in 42 different treatment centers in North America were screened and randomized to three groups of approximately 300 patients each, prior to their bypass surgery, as follows. Patients were either placed in a control group (placebo), treated with 250 mg/day of pyridoxal-5′-phosphate, (250 mg/day), or treated with 750 mg day of pyridoxal-5′-phosphate (750 mg/day). The first dose of study medication was administered at 3-10 hours prior to CABG surgery. In the event of surgery delay or rescheduling, a second pre-operative dose of pyridoxal-5′-phosphate was administered so that all patients received study medication 3-10 hours before surgery. Treatment continued for 30 days after surgery (post operative day (POD) 30). Patients received follow-up evaluations up to and including postoperative day (POD) 4, on POD 30 and on POD 90. 12-lead ECG were taken at baseline (Pre-Op), POD 2, POD 4, POD 30 and POD 90 with patients on placebo, 250 mg/day pyridoxal-5′-phosphate (P5P), and 750 mg/day pyridoxal-5′-phosphate. The data from baseline, POD 4 and POD 90 were analyzed.

[1] = in water, alcohol, and ether; cited from earlier work
[2] = system: ATP induced calcium ion influx into cells (P2X purinoceptors); details: a recent evaluation; suggested due to inhibition of P2X purinoceptors; cited from earlier work

Cc1ncc(COP(=O)(O)O)c(C=O)c1O [pyridoxal-5′-phosphate, 3-hydroxy-2-methyl-5-[(phosphonooxy)methyl]-4-pyridine-carboxaldehyde]
Reduction of AF compared to placebo (Atrial Fibrillation; 250 mg dose, p=0.0084): 51.75%
Reduction of AF compared to placebo (Atrial Fibrillation; 750 mg dose, p=0.013): 49.08%
Number of patients who had AF at POD 4 (Atrial Fibrillation; 250 mg/day P5P (n = 301)): 56
Percent of patients who had AF at POD 4 (Atrial Fibrillation; 250 mg/day P5P (n = 301)): 18.60%
Number of patients who had AF at POD 4 (Atrial Fibrillation; 750 mg/day P5P (n = 302)): 63
Percent of patients who had AF at POD 4 (Atrial Fibrillation; 750 mg/day P5P (n = 302)): 20.86%
Number of patient who had AF at POD 90 (Atrial Fibrillation; 250 mg/day P5P (n = 301)): 17
Percent of patient who had AF at POD 90 (Atrial Fibrillation; 250 mg/day P5P (n = 301)): 5.65%
Number of patient who had AF at POD 90 (Atrial Fibrillation; 750 mg/day P5P (n = 302)): 18
Percent of patient who had AF at POD 90 (Atrial Fibrillation; 750 mg/day P5P (n = 302)): 5.96%
Solubility [1]: essentially insoluble
Effect on ATP induced calcium ion influx into cells [2]: inhibits
